Measurements: BindingDB's records for doi:10.1016/j.bmcl.2016.06.045 (China Pharmaceutical University, 2016)

Assay: Inhibition of PARP1 in human A549 cells assessed as potentiation of TMZ-mediated cytotoxicity by measuring TMZ IC50 for growth inhibition at 0.5 uM by SRB assay (Rvb TMZ IC50 = 295 uM)

C[C@]1(c2nc3c(C(N)=O)c(F)ccc3[nH]2)CCCN1
IC50: 338 µM

NC(=O)c1c(F)ccc2[nH]c(-c3ccc(N4CCOCC4)cc3)nc12
IC50: 130 µM

CCCN1CCC(c2nc3c(C(N)=O)c(F)ccc3[nH]2)CC1
IC50: 152 µM

NC(=O)c1c(F)ccc2[nH]c(-c3ccc(N4CCNCC4)cc3)nc12
IC50: 188 µM

CN1CCC[C@@]1(C)c1nc2c(C(N)=O)c(F)ccc2[nH]1
IC50: 310 µM

NC(=O)c1c(F)ccc2[nH]c(C3CCNCC3)nc12
IC50: 354 µM
